The molecules below were run against T1, human adenosine A2A receptor (Homo sapiens, UniProt P29274) (assay: [3H]-SCH-58261 binding assay on membranes of CHO cells expressing the human adenosine A2A receptor). Settings: [3H]-SCH-58261 (1 nM) displacement, CHO cell membranes, SPA beads, 1 hour at room temperature; Ki by Cheng-Prussoff equation.
T1 construct: expressed in transfected cells; host or cells: CHO cells, Semliki Forest virus expression system; washed membrane pellet used
Description: Human Adenosine A2A Receptor
The human adenosine A2A receptor was recombinantly expressed in chinese hamster ovary (CHO) cells using the semliki forest virus expression system. Cells were harvested, washed twice by centrifugation, homogenised and again washed by centrifugation. The final washed membrane pellet was suspended in a Tris (50 mM) buffer containing 120 mM NaCl, 5 mM KCl, 2 mM CaCl2 and 10 mM MgCl2 (pH 7.4) (buffer A). The [3H]-SCH-58261 (Dionisotti et al., 1997, Br J Pharmacol 121, 353; 1 nM) binding assay was carried out in 96-well plates in the presence of 2.5 μg of membrane protein, 0.5 mg of Ysi-poly-1-lysine SPA beads and 0.1 U adenosine deaminase in a final volume of 200 μl of buffer A. Non-specific binding was defined using xanthine amine congener (XAC; 2 μM). Compounds were tested at 10 concentrations from 10 μM-0.3 nM. All assays were conducted in duplicate and repeated at least two times. Assay plates were incubated for 1 hour at room temperature before centrifugation and then bound ligand determined using a Packard Topcount scintillation counter. IC50 values were calculated using a non-linear curve fitting program and Ki values calculated using, the Cheng-Prussoff equation.

T1 sequence (P29274 whole entry): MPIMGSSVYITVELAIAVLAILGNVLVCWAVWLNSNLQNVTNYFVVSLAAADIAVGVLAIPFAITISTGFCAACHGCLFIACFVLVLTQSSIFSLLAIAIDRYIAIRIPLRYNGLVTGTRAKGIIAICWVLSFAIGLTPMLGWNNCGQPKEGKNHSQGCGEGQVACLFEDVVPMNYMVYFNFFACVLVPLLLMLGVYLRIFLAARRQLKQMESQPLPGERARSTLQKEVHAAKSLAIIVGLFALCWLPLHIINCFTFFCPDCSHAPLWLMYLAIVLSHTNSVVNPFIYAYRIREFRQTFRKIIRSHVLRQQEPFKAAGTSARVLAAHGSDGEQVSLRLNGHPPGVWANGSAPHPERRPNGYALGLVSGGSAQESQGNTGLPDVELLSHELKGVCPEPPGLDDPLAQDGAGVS

Structure (SMILES) | hA2 (pKi)
COc1ccc(N(C)C2CCOCC2)c2sc(NC(=O)c3ccnc(N4CCOCC4)c3)nc12 [Example 38, N-{4-Methoxy-4-[methyl-(tetrahydro-pyran-4-yl)-amino]-benzothiazol-2-yl}-2-morpholin-4-yl-isonicotinamide] | 7.33

Same assay, conditions: [3H]-SCH-58261 (1 nM) displacement, CHO cell membranes, SPA beads, 1 hour at room temperature; Ki by Cheng-Prussoff equation; read-out: hA2 (pKi) (converted)

Structure (SMILES) | Ki [nM]
COCCN(C)c1ccc(OC)c2nc(NC(=O)c3ccccc3)sc12 [Example 1, N-{4-Methoxy-7-[(2-methoxy-ethyl)-methyl-amino]-benzothiazol-2-yl}-benzamide] | 52.5
COCCN(C)c1ccc(OC)c2nc(NC(=O)c3ccc(F)cc3)sc12 [Example 2, 4-Fluoro-N-{4-methoxy-7-[(2-methoxy-ethyl)-methyl-amino]-benzothiazol-2-yl}-benzamide] | 38
COCCN(C)c1ccc(OC)c2nc(NC(=O)c3ccc(CCl)cc3)sc12 [Example 3, 4-Chloromethyl-N-{4-methoxy-7-[(2-methoxy-ethyl)-methyl-amino]-benzothiazol-2-yl}-benzamide] | 37.2
COCCN(C)c1ccc(OC)c2nc(NC(=O)c3ccnc(N4CCOCC4)c3)sc12 [Example 6, N-{4-Methoxy-7-[(2-methoxy-ethyl)-methyl-amino]-benzothiazol-2-yl}-2-morpholin-4-yl-isonicotinamide] | 52.5
COc1ccc(N(Cc2ccc(C)cc2)C(C)=O)c2sc(NC(=O)c3ccccc3)nc12 [Example 10, N-{7-[Acetyl-(4-methyl-benzyl)-amino]-4-methoxy-benzothiazol-2-yl}-benzamide] | 11.5
COc1ccc(N(C)C)c2sc(NC(=O)c3ccc(F)cc3)nc12 [Example 12, N-(7-Dimethylamino-4-methoxy-benzothiazol-2-yl)-4-fluoro-benzamide] | 74.1
COc1ccc(N(C)Cc2ccccc2)c2sc(NC(=O)c3ccc(F)cc3)nc12 [Example 14, N-[7-(Benzyl-methyl-amino)-4-methoxy-benzothiazol-2-yl]-4-fluoro-benzamide] | 38.9
COc1ccc(N(C)Cc2ccccn2)c2sc(NC(=O)c3ccc(F)cc3)nc12 [Example 15, 4-Fluoro-N-[4-methoxy-7-(methyl-pyridin-2-ylmethyl-amino)-benzothiazol-2-yl]-benzamide] | 61.7
COc1ccc(N(C)Cc2ccccc2)c2sc(NC(=O)c3ccnc(C)c3)nc12 [Example 16, N-[7-(Benzyl-methyl-amino)-4-methoxy-benzothiazol-2-yl]-2-methyl-isonicotinamide] | 15.5
COc1ccc(N(C)CC(=O)N(C)C)c2sc(NC(=O)c3ccc(F)cc3)nc12 [Example 17, N-[7-(Dimethylcarbamoylmethyl-methyl-amino)-4-methoxy-benzothiazol-2-yl]-4-fluoro-benzamide] | 60.3
COc1ccc(N(C)C(C)=O)c2sc(NC(=O)c3ccc(F)cc3)nc12 [Example 19, N-[7-(Acetyl-methyl-amino)-4-methoxy-benzothiazol-2-yl]-4-fluoro-benzamide] | 13.2
CCN(CC(=O)N(C)C)c1ccc(OC)c2nc(NC(=O)c3ccc(F)cc3)sc12 [Example 20, N-[7-(Dimethylcarbamoylmethyl-ethyl-amino)-4-methoxy-benzothiazol-2-yl]-4-fluoro-benzamide] | 61.7
CCN(C(C)=O)c1ccc(OC)c2nc(NC(=O)c3ccc(F)cc3)sc12 [Example 21, N-[7-(Acetyl-ethyl-amino)-4-methoxy-benzothiazol-2-yl]-4-fluoro-benzamide] | 10
COc1ccc(N(Cc2ccccc2)C(C)=O)c2sc(NC(=O)c3ccc(F)cc3)nc12 [Example 24, N-[7-(Acetyl-benzyl-amino)-4-methoxy-benzothiazol-2-yl]-4-fluoro-benzamide] | 10.7
COc1ccc(N(Cc2ccccc2)C(C)=O)c2sc(NC(=O)c3ccnc(Br)c3)nc12 [Example 25, N-[7-(Acetyl-benzyl-amino)-4-methoxy-benzothiazol-2-yl]-2-bromo-isonicotinamide] | 52.5
COCCN(C(C)=O)c1ccc(OC)c2nc(NC(=O)c3ccc(F)cc3)sc12 [Example 26, N-{7-[Acetyl-(2-methoxy-ethyl)-amino]-4-methoxy-benzothiazol-2-yl}-4-fluoro-benzamide] | 17.8
COc1ccc(CN(C)c2ccc(OC)c3nc(NC(=O)c4ccc(F)cc4)sc23)cc1 [Example 28, 4-Fluoro-N-{4-methoxy-7-[(4-methoxy-benzyl)-methyl-amino]-benzothiazol-2-yl}-benzamide] | 49
COc1ccc(CN(C)c2ccc(OC)c3nc(NC(=O)c4ccnc(C)c4)sc23)cc1 [Example 30, N-{4-Methoxy-7-[(4-methoxy-benzyl)-methyl-amino]-benzothiazol-2-yl}-2-methyl-isonicotinamide] | 26.3
COc1ccc(N(C)Cc2ccccc2)c2sc(NC(=O)c3ccnc(Br)c3)nc12 [Example 32, N-[7-(Benzyl-methyl-amino)-4-methoxy-benzothiazol-2-yl]-2-bromo-isonicotinamide] | 33.1
COc1ccc(N(C)Cc2ccccc2)c2sc(NC(=O)c3ccnc(N4CCOCC4)c3)nc12 [Example 35, N-[7-(Benzyl-methyl-amino)-4-methoxy-benzothiazol-2-yl]-2-morpholin-4-yl-isonicotinamide] | 11
COc1ccc(N(C)C2CCOCC2)c2sc(NC(=O)c3ccc(F)cc3)nc12 [Example 37, 4-Fluoro-N-{4-methoxy-7-[methyl-(tetrahydro-pyran-4-yl)-amino]-benzothiazol-2-yl}-benzamide] | 56.2

— patent publication US6713499B2, “7-Amino-benzothiazole derivatives” (Hoffman-La Roche Inc., priority 2001, dated 2004)
